# Measured values reported in patent US10143746B2, “Immunomodulators” (BRISTOL-MYERS SQUIBB COMPANY, priority 2016, dated 2018).
# pIC50: −log10 of the molar value. Where a SMILES comes first, the peptide text is derived from it. Bridges are numbered along the chain shown (N, C = ends). [ ]: non-standard residue; d: D form. Hyp = O=C(O)[C@@H]1C[C@@H](O)CN1; NMeNle = CCCC[C@H](NC)C(=O)O; NMeA = CN[C@@H](C)C(=O)O; Orn = NCCC[C@H](N)C(=O)O; Dab = NCC[C@H](N)C(=O)O; Sar = CNCC(=O)O
# Target: PD-1-Ig binding to PD-L1-TVMV-His (PD-L1-His) (Homo sapiens (Human), UniProt Q9NZQ7)
# Sequence (Q9NZQ7 other isoform, or with tags, fused parts or gaps): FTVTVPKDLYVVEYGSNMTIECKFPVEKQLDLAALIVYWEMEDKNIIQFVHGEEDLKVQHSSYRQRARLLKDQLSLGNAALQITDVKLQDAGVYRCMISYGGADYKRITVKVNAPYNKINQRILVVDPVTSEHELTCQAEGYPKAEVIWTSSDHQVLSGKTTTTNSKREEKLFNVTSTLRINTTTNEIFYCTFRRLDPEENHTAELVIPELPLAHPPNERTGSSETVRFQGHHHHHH
# Assay: PD-1/PD-L1 Homogenous Time-Resolved Fluorescence (HTRF) binding assay (PD-1-Ig/PD-L1-His)
# Details: PD-1-Ig (20 nM)/PD-L1-His (10 nM); numeric values
# Source text: Methods for Testing the Ability of Macrocyclic Compounds to Compete for the Binding of PD-1 to PD-L1 Using Homogenous Time-Resolved Fluorescence (HTRF) Binding Assays
# The ability of the macrocyclic compounds of the present disclosure to bind to PD-L1 was investigated using a PD-1/PD-L1 Homogenous Time-Resolved Fluorescence (HTRF) binding assay.
# Homogenous Time-Resolved Fluorescence (HTRF) Assays of Binding of Soluble PD-1 to Soluble PD-L1. Soluble PD-1 and soluble PD-L1 refers to proteins with carboxyl-end truncations that remove the transmembrane-spanning regions and are fused to heterologous sequences, specifically the Fc portion of the human immunoglobulin G sequence (Ig) or the hexahistidine epitope tag (His). All binding studies were performed in an HTRF assay buffer consisting of dPBS supplemented with 0.1% (w/v) bovine serum albumin and 0.05% (v/v) Tween-20. For the PD-1-Ig/PD-L1-His binding assay, inhibitors were pre-incubated with PD-L1-His (10 nM final) for 15 m in 4 μl of assay buffer, followed by addition of PD-1-Ig (20 nM final) in 1 μl of assay buffer and further incubation for 15 m. PD-L1 fusion proteins from either human, cynomologous macaques, mouse, or other species were used. HTRF detection was achieved using europium crypate-labeled anti-Ig monoclonal antibody (1 nM final) and allophycocyanin (APC) labeled anti-His monoclonal antibody (20 nM final). Antibodies were diluted in HTRF detection buffer and 5 μl was dispensed on top of binding reaction. […] Additional binding assays were established between PD-1-Ig/PD-L2-His (20 and 5 nM, respectively), CD80-His/PD-L1-Ig (100 and 10 nM, respectively) and CD80-His/CTLA4-Ig (10 and 5 nM, respectively).
# Recombinant Proteins. […] Human PD-L2-His (Sino Biologicals), CD80-His (Sino Biologicals), CTLA4-Ig (RnD Systems) were all obtained through commercial sources.
row,pIC50,SMILES
1,8.15,CCCC[C@H]1C(=O)N(C)[C@@H](CCCC)C(=O)N[C@@H](C)C(=O)N[C@H](C(=O)NCC(N)=O)CSCC(=O)N[C@@H](Cc2ccc(O)cc2)C(=O)N(C)[C@@H](C)C(=O)N[C@H]2CCCNC(=O)CC[C@@H](NC(=O)[C@H](Cc3cn(C(=O)C(F)(F)F)cn3)NC(=O)[C@@H]3CCCC3C2=O)C(=O)N2C[C@H](O)C[C@H]2C(=O)N[C@@H](Cc2c[nH]c3ccccc23)C(=O)N[C@@H](CO)C(=O)N[C@@H](Cc2c[nH]c3ccccc23)C(=O)N1C (some centres unmarked) [Example 1403]

# Same assay, conditions: PD-1-Ig (20 nM)/PD-L1-His (10 nM); range classes
row,pIC50,SMILES
1,7.00 to 8.00,CCCC[C@H]1C(=O)N(C)[C@@H](CCCC)C(=O)N[C@@H](CCCNC(=N)N)C(=O)N[C@H](C(=O)NCC(N)=O)CSCC(=O)N[C@@H](Cc2ccc(O)cc2)C(=O)N(C)[C@@H](C)C(=O)N[C@H]2CCNC(=O)CC[C@H](NC(=O)[C@H](C)NC(=O)[C@@H]3CCCN3C2=O)C(=O)N2C[C@H](O)C[C@H]2C(=O)N[C@@H](Cc2c[nH]c3ccccc23)C(=O)N[C@@H](CO)C(=O)N[C@@H](Cc2c[nH]c3ccccc23)C(=O)N1C [Example 1400] ({CH2CO}-Y[NMeA][Dab]PAE[Hyp]WSW[NMeNle][NMeNle]RCG-NH2; lactam 3-6; thioether N-14)
2,7.00 to 8.00,CCCC[C@H]1C(=O)N(C)[C@@H](CCCC)C(=O)N[C@@H](C)C(=O)N[C@H]2CSCC(=O)N[C@@H](Cc3ccc(O)cc3)C(=O)N(C)[C@@H](C)C(=O)N[C@@H](CC(N)=O)C(=O)N3CCC[C@H]3C(=O)N[C@@H](Cc3cn(C(=O)C(F)(F)F)cn3)C(=O)N[C@@H](CC(C)C)C(=O)N[C@@H](CCCNC(=O)CNC2=O)C(=O)N[C@@H](Cc2c[nH]c3ccccc23)C(=O)N[C@@H](CO)C(=O)N[C@@H](Cc2c[nH]c3ccccc23)C(=O)N1C [Example 1401]
3,7.00 to 8.00,CCCC[C@H]1C(=O)N(C)[C@@H](CCCC)C(=O)N[C@@H](CCCNC(=N)N)C(=O)N[C@H](C(=O)NCC(N)=O)CSCC(=O)N[C@@H](Cc2ccc(O)cc2)C(=O)N(C)[C@@H](C)C(=O)N[C@H]2CCCNC(=O)CC[C@H](NC(=O)[C@H](C)NC(=O)[C@@H]3CCCN3C2=O)C(=O)N2C[C@H](O)C[C@H]2C(=O)N[C@@H](Cc2c[nH]c3ccccc23)C(=O)N[C@@H](CO)C(=O)N[C@@H](Cc2c[nH]c3ccccc23)C(=O)N1C [Example 1402] ({CH2CO}-Y[NMeA][Orn]PAE[Hyp]WSW[NMeNle][NMeNle]RCG-NH2; lactam 3-6; thioether N-14)
4,7.00 to 8.00,CCCC[C@H]1C(=O)N(C)[C@@H](CCCC)C(=O)N[C@@H](C)C(=O)N[C@H](C(=O)NCC(N)=O)CSCC(=O)N[C@@H](Cc2ccc(O)cc2)C(=O)N(C)[C@@H](C)C(=O)N[C@H]2CC(=O)NCC[C@H](NC(=O)[C@H](Cc3cnc[nH]3)NC(=O)[C@@H]3CCCN3C2=O)C(=O)N2C[C@H](O)C[C@H]2C(=O)N[C@@H](Cc2c[nH]c3ccccc23)C(=O)N[C@@H](CO)C(=O)N[C@@H](Cc2c[nH]c3ccccc23)C(=O)N1C [Example 1500] ({CH2CO}-Y[NMeA]DPH[Dab][Hyp]WSW[NMeNle][NMeNle]ACG-NH2; lactam 3-6; thioether N-14)
5,7.00 to 8.00,CCCC[C@H]1C(=O)N(C)[C@@H](CCCC)C(=O)N[C@@H](C)C(=O)N[C@H](C(=O)NCC(N)=O)CSCC(=O)N[C@@H](Cc2ccc(O)cc2)C(=O)N(C)[C@@H](C)C(=O)N[C@H]2CCC(=O)NCC[C@H](NC(=O)[C@H](Cc3cnc[nH]3)NC(=O)[C@@H]3CCCN3C2=O)C(=O)N2C[C@H](O)C[C@H]2C(=O)N[C@@H](Cc2c[nH]c3ccccc23)C(=O)N[C@@H](CO)C(=O)N[C@@H](Cc2c[nH]c3ccccc23)C(=O)N1C [Example 1501] ({CH2CO}-Y[NMeA]EPH[Dab][Hyp]WSW[NMeNle][NMeNle]ACG-NH2; lactam 3-6; thioether N-14)
6,7.00 to 8.00,CCCC[C@H]1C(=O)N(C)[C@@H](CCCC)C(=O)N[C@@H](C)C(=O)N[C@H](C(=O)NCC(N)=O)CSCC(=O)N[C@@H](Cc2ccc(O)cc2)C(=O)N(C)[C@@H](C)C(=O)N[C@H]2CCNC(=O)CC[C@H](NC(=O)[C@H](Cc3cnc[nH]3)NC(=O)[C@@H]3CCCN3C2=O)C(=O)N2C[C@H](O)C[C@H]2C(=O)N[C@@H](Cc2c[nH]c3ccccc23)C(=O)N[C@@H](CO)C(=O)N[C@@H](Cc2c[nH]c3ccccc23)C(=O)N1C [Example 1504] ({CH2CO}-Y[NMeA][Dab]PHE[Hyp]WSW[NMeNle][NMeNle]ACG-NH2; lactam 3-6; thioether N-14)
7,7.00 to 8.00,CCCC[C@H]1C(=O)N(C)[C@@H](CCCC)C(=O)N[C@@H](C)C(=O)N[C@H](C(=O)NCC(N)=O)CSCC(=O)N[C@@H](Cc2ccc(O)cc2)C(=O)N(C)[C@@H](C)C(=O)N[C@H]2CCC(=O)NCCC[C@H](NC(=O)[C@H](Cc3cnc[nH]3)NC(=O)[C@@H]3CCCN3C2=O)C(=O)N2C[C@H](O)C[C@H]2C(=O)N[C@@H](Cc2c[nH]c3ccccc23)C(=O)N[C@@H](CO)C(=O)N[C@@H](Cc2c[nH]c3ccccc23)C(=O)N1C [Example 1505] ({CH2CO}-Y[NMeA]EPH[Orn][Hyp]WSW[NMeNle][NMeNle]ACG-NH2; lactam 3-6; thioether N-14)
8,7.00 to 8.00,CCCC[C@H]1C(=O)N(C)[C@@H](CCCC)C(=O)N[C@@H](C)C(=O)N[C@H](C(=O)NCC(N)=O)CSCC(=O)N[C@@H](Cc2ccc(O)cc2)C(=O)N(C)[C@@H](C)C(=O)N[C@H]2CCCNC(=O)CC[C@H](NC(=O)[C@H](Cc3cnc[nH]3)NC(=O)[C@@H]3CCCN3C2=O)C(=O)N2C[C@H](O)C[C@H]2C(=O)N[C@@H](Cc2c[nH]c3ccccc23)C(=O)N[C@@H](CO)C(=O)N[C@@H](Cc2c[nH]c3ccccc23)C(=O)N1C [Example 1506] ({CH2CO}-Y[NMeA][Orn]PHE[Hyp]WSW[NMeNle][NMeNle]ACG-NH2; lactam 3-6; thioether N-14)
9,7.00 to 8.00,CCCC[C@H]1C(=O)N(C)[C@@H](CCCC)C(=O)N[C@@H](C)C(=O)N[C@H](C(=O)NCC(N)=O)CSCC(=O)N[C@@H](Cc2ccc(O)cc2)C(=O)N(C)[C@@H](C)C(=O)N[C@H]2CC(=O)NCCCC[C@H](NC(=O)[C@H](Cc3cnc[nH]3)NC(=O)[C@@H]3CCCN3C2=O)C(=O)N2C[C@H](O)C[C@H]2C(=O)N[C@@H](Cc2c[nH]c3ccccc23)C(=O)N[C@@H](CO)C(=O)N[C@@H](Cc2c[nH]c3ccccc23)C(=O)N1C [Example 1507] ({CH2CO}-Y[NMeA]DPHK[Hyp]WSW[NMeNle][NMeNle]ACG-NH2; lactam 3-6; thioether N-14)
10,7.00 to 8.00,CCCC[C@H]1C(=O)N(C)[C@@H](CCCC)C(=O)N[C@@H](C)C(=O)N[C@H](C(=O)NCC(N)=O)CSCC(=O)N[C@@H](Cc2ccc(O)cc2)C(=O)N(C)[C@@H](C)C(=O)N[C@H]2CC(=O)NCCC[C@H](NC(=O)[C@H](Cc3cnc[nH]3)NC(=O)[C@@H]3CCCN3C2=O)C(=O)N2C[C@H](O)C[C@H]2C(=O)N[C@@H](Cc2c[nH]c3ccccc23)C(=O)N[C@@H](CO)C(=O)N[C@@H](Cc2c[nH]c3ccccc23)C(=O)N1C [Example 1508] ({CH2CO}-Y[NMeA]DPH[Orn][Hyp]WSW[NMeNle][NMeNle]ACG-NH2; lactam 3-6; thioether N-14)
11,8.00 to 8.52,CCCC[C@H]1C(=O)N(C)[C@@H](CCCC)C(=O)N[C@H]2CCC(=O)NCCCC[C@H](NC(=O)[C@H](Cc3c[nH]c4ccccc34)NC(=O)CN(C)C(=O)[C@H](CC(C)C)NC(=O)[C@H](Cc3c[nH]cn3)NC(=O)[C@@H]3CCCN3C(=O)[C@H](CC(N)=O)NC(=O)[C@H](C)N(C)C(=O)[C@H](Cc3ccccc3)NC(=O)CSC[C@@H](C(=O)NCC(N)=O)NC2=O)C(=O)N[C@@H](Cc2c[nH]c3ccccc23)C(=O)N1C [Example 5001] ({CH2CO}-F[NMeA]NPHL[Sar]WKW[NMeNle][NMeNle]ECG-NH2; lactam 9-13; thioether N-14)
12,7.00 to 8.00,CCCC[C@H]1C(=O)N(C)[C@@H](CCCC)C(=O)N[C@H]2CCCCNC(=O)CC[C@H](NC(=O)[C@H](Cc3c[nH]c4ccccc34)NC(=O)CN(C)C(=O)[C@H](CC(C)C)NC(=O)[C@H](Cc3c[nH]cn3)NC(=O)[C@@H]3CCCN3C(=O)[C@H](CC(N)=O)NC(=O)[C@H](C)N(C)C(=O)[C@H](Cc3ccccc3)NC(=O)CSC[C@@H](C(=O)NCC(N)=O)NC2=O)C(=O)N[C@@H](Cc2c[nH]c3ccccc23)C(=O)N1C [Example 5002] ({CH2CO}-F[NMeA]NPHL[Sar]WEW[NMeNle][NMeNle]KCG-NH2; lactam 9-13; thioether N-14)
13,7.00 to 8.00,CCCC[C@H]1C(=O)N(C)[C@@H](CCCC)C(=O)N[C@H]2CCC(=O)NCCC[C@H](NC(=O)[C@H](Cc3c[nH]c4ccccc34)NC(=O)CN(C)C(=O)[C@H](CC(C)C)NC(=O)[C@H](Cc3c[nH]cn3)NC(=O)[C@@H]3CCCN3C(=O)[C@H](CC(N)=O)NC(=O)[C@H](C)N(C)C(=O)[C@H](Cc3ccccc3)NC(=O)CSC[C@@H](C(=O)NCC(N)=O)NC2=O)C(=O)N[C@@H](Cc2c[nH]c3ccccc23)C(=O)N1C [Example 5003] ({CH2CO}-F[NMeA]NPHL[Sar]W[Orn]W[NMeNle][NMeNle]ECG-NH2; lactam 9-13; thioether N-14)
